According to ChEMBL document CHEMBL4330144, “A mitochondria-targeted organic arsenical accelerates mitochondrial metabolic disorder and function injury” (Bioorg Med Chem, 2019):
The source made the active and inactive calls. The calls are words filed in the database; no cut-off is given here.

Assays:
[1] = organism: Rattus norvegicus; experiment: Induction of mitochondrial swelling in isolated Wistar rat mitochondria at 30 uM in presence of ruthenium red; assay type: functional
[2] = system: NB-4; experiment: Induction of apoptosis in human NB4 cells assessed as live cells after 24 hrs in presence of Nec-1 by Annexin V-FITC/propidium iodide staining based flow cytometry (reference value: 92%); assay type: functional
[3] = system: NB-4; experiment: Cytotoxicity against human NB4 cells assessed as reduction in cell viability at 1 to 1.2 uM after 24 hrs in presence of DMSA by trypan blue assay; assay type: functional, cell-based
[4] = system: NB-4; experiment: Cytotoxicity against human NB4 cells after 24 hrs by MTT assay; assay type: functional, cell-based; conditions: NB-4, 24 h
[5] = organism: Rattus norvegicus; experiment: Induction of mitochondrial membrane potential loss in isolated Wistar rat mitochondria assessed as activity recovery phase rate constant at 25 uM using pyruvate as substrate up to 3 hrs by microcalorimetry (reference value: 5.15 to 7.33 10^-3/min); assay type: functional
[6] = organism: Rattus norvegicus; experiment: Induction of mitochondrial membrane potential loss in isolated Wistar rat mitochondria assessed as total heat output at 25 uM using pyruvate as substrate up to 3 hrs by microcalorimetry (reference value: 10.32 to 10.36 J); assay type: functional
[7] = organism: Rattus norvegicus; experiment: Induction of mitochondrial membrane potential loss in isolated Wistar rat mitochondria assessed as total heat output at 50 uM using pyruvate as substrate up to 3 hrs by microcalorimetry; assay type: functional
[8] = system: SGC-7901; experiment: Cytotoxicity against human SGC7901 cells after 48 hrs by MTT assay; assay type: functional, cell-based; conditions: SGC-7901, 48 h
[9] = system: NB-4; experiment: Cytotoxicity against human NB4 cells assessed as reduction in cell viability at 1.2 uM after 24 hrs in presence of PDHC-E2 co-enzyme LA by trypan blue assay; assay type: functional, cell-based
[10] = organism: Rattus norvegicus; experiment: Induction of mitochondrial membrane potential loss in isolated Wistar rat mitochondria assessed as decline phase rate constant at 100 uM using pyruvate as substrate up to 3 hrs by microcalorimetry; assay type: functional
[11] = organism: Rattus norvegicus; experiment: Induction of mitochondrial membrane potential loss in isolated Wistar rat mitochondria assessed as stationary increase phase rate constant at 100 uM using pyruvate as substrate up to 3 hrs by microcalorimetry; assay type: functional
[12] = system: HEK293; experiment: Cytotoxicity against HEK293 cells after 48 hrs by MTT assay; assay type: cell-based; conditions: Homo sapiens, HEK293, 48 h
[13] = system: NB-4; experiment: Induction of apoptosis in human NB4 cells assessed as early apoptotic cells after 24 hrs in presence of Nec-1 by Annexin V-FITC/propidium iodide staining based flow cytometry (reference value: 5%); assay type: functional
[14] = organism: Rattus norvegicus; experiment: Induction of mitochondrial membrane potential loss in isolated Wistar rat mitochondria assessed as maximum power output time at 25 uM using pyruvate as substrate up to 3 hrs by microcalorimetry (reference value: 45.07 to 49.89 hrs); assay type: functional
[15] = system: NB-4; experiment: Induction of mitochondrial membrane potential loss in human NB4 cells assessed as decrease in intracellular ATP level at 0.6 to 1.2 uM after 24 hrs; assay type: functional, cell-based
[16] = system: NB-4; experiment: Cytotoxicity against human NB4 cells assessed as reduction in cell viability at 1 to 1.2 uM after 24 hrs in presence of DTT by trypan blue assay; assay type: functional, cell-based
[17] = organism: Rattus norvegicus; experiment: Induction of mitochondrial membrane potential loss in isolated Wistar rat mitochondria assessed as maximum power output time at 50 uM using pyruvate as substrate up to 3 hrs by microcalorimetry; assay type: functional
[18] = system: HL-60; experiment: Cytotoxicity against human HL60 cells after 48 hrs by MTT assay; assay type: functional, cell-based; conditions: HL-60, 48 h
[19] = system: NB-4; experiment: Induction of mitochondrial membrane potential loss in human NB4 cells at 0.6 uM after 3 hrs by JC1 staining based flow cytometry (reference value: 27.7%); assay type: functional
[20] = system: NB-4; experiment: Cytotoxicity against human NB4 cells assessed as reduction in cell viability at 1 to 1.2 uM after 24 hrs in presence of DMP by trypan blue assay; assay type: functional, cell-based
[21] = system: HEK293; experiment: Cytotoxicity against HEK293 cells after 24 hrs by MTT assay; assay type: cell-based; conditions: Homo sapiens, HEK293, 24 h
[22] = system: HeLa; experiment: Cytotoxicity against human HeLa cells after 24 hrs by MTT assay; assay type: functional, cell-based
[23] = organism: Rattus norvegicus; experiment: Inhibition of ETC2 in isolated Wistar rat mitochondria assessed as decrease in DCPIP/DB reagent reduction at 5 to 50 uM incubated for 3 to 5 mins and measured for up to 3 mins
[24] = system: NB-4; experiment: Cytotoxicity against human NB4 cells assessed as reduction in cell viability up to 2.4 uM up to 8 hrs by MTT assay; assay type: functional, cell-based
[25] = system: NB-4; experiment: Induction of apoptosis in human NB4 cells assessed as late apoptotic cells after 24 hrs in presence of Nec-1 by Annexin V-FITC/propidium iodide staining based flow cytometry (reference value: 2.9%); assay type: functional
[26] = organism: Rattus norvegicus; experiment: Induction of inner mitochondrial membrane permeabilization in isolated Wistar rat mitochondria assessed as K+ permeabilization at 5 to 75 uM measured for 10 to 30 mins; assay type: functional
[27] = organism: Rattus norvegicus; experiment: Induction of mitochondrial membrane potential loss in isolated Wistar rat mitochondria assessed as maximum power output at 100 uM using pyruvate as substrate up to 3 hrs by microcalorimetry; assay type: functional
[28] = system: NB-4; experiment: Reduction in cell viability in human NB4 cells up to 1.6 uM up to 24 hrs by MTT assay; assay type: functional, cell-based
[29] = system: NB-4; experiment: Induction of ROS generation in human NB4 cells up to 1.2 uM up to 24 hrs by DHE staining based flow cytometry; assay type: functional, cell-based
[30] = system: MCF7; experiment: Cytotoxicity against human MCF7 cells after 48 hrs by MTT assay; assay type: functional, cell-based; conditions: MCF7, 48 h
[31] = organism: Rattus norvegicus; experiment: Inhibition of ETC3 in isolated Wistar rat mitochondria assessed as decrease in oxidized cyochrome-c reduction at 50 uM incubated for 3 to 5 mins and measured for up to 3 mins
[32] = organism: Rattus norvegicus; experiment: Induction of mitochondrial membrane potential loss in isolated Wistar rat mitochondria assessed as maximum power output time at 100 uM using pyruvate as substrate up to 3 hrs by microcalorimetry; assay type: functional
[33] = system: NB-4; experiment: Cytotoxicity against human NB4 cells after 48 hrs by MTT assay; assay type: functional, cell-based; conditions: NB-4, 48 h
[34] = organism: Rattus norvegicus; experiment: Induction of mitochondrial swelling in isolated Wistar rat mitochondria at 30 uM in presence of EGTA; assay type: functional
[35] = system: NB-4; experiment: Induction of apoptosis in human NB4 cells assessed as necrotic cells after 24 hrs in presence of Nec-1 by Annexin V-FITC/propidium iodide staining based flow cytometry (reference value: 0.1%); assay type: functional
[36] = system: NB-4; experiment: Induction of apoptosis in human NB4 cells assessed as late apoptotic cells after 24 hrs in presence of Z-VAD-fmk by Annexin V-FITC/propidium iodide staining based flow cytometry (reference value: 2.9%); assay type: functional
[37] = organism: Rattus norvegicus; experiment: Inhibition of mitochondrial respiration in isolated Wistar rat mitochondria assessed as decrease in succinate/ADP-stimulated respiratory control ratio up to 16 uM by Clark oxygen electrode method; assay type: functional
[38] = system: HL-60; experiment: Cytotoxicity against human HL60 cells after 24 hrs by MTT assay; assay type: functional, cell-based; conditions: HL-60, 24 h
[39] = system: NB-4; experiment: Induction of apoptosis in human NB4 cells assessed as early apoptotic cells after 24 hrs by Annexin V-FITC/propidium iodide staining based flow cytometry (reference value: 5%); assay type: functional
[40] = system: NB-4; experiment: Induction of apoptosis in human NB4 cells assessed as DNA fragmentation at 0.6 to 1.2 uM after 24 hrs by Hoechst 33342/propidium iodide staining based confocal microscopic method; assay type: functional, cell-based

## O=C(CC[P+](c1ccccc1)(c1ccccc1)c1ccccc1)Nc1ccc([As]2SCCCS2)cc1.[Cl-]
[1]
  Activity: inactive
[2]
  Activity: 71.2%
[3]
  Activity: inactive
[4]
  IC50: 650 nM
[5]
  K: 3.82 ×10⁻³ /min
[6]
  Activity: 10.8 J
[7]
  Activity: 10.2 J
[8]
  IC50: 990 nM
[9]
  Activity: inactive
[10]
  K: -9.13 ×10⁻³ /min
[11]
  K: 0.41 ×10⁻³ /min
[12]
  IC50: 2080 nM
[13]
  Activity: 11.6%
[14]
  TIME: 45.4 h
[15]
  Activity: Active
[16]
  Activity: inactive
[17]
  TIME: 47.6 h
[18]
  IC50: 3230 nM
[19]
  Activity: 73.9%
[20]
  Activity: inactive
[21]
  IC50: 4630 nM
[22]
  IC50: 9050 nM
[23]
  inhibition: inactive
[24]
  Activity: inactive
[25]
  Activity: 16.2%
[26]
  Activity: Active
[27]
  Activity: 112 W
[28]
  Activity: Active
[29]
  Activity: Active
[30]
  IC50: 1460 nM
[31]
  inhibition: Active
[32]
  TIME: 51.8 h
[33]
  IC50: 510 nM
[34]
  Activity: inactive
[35]
  Activity: 1%
[36]
  Activity: 5.2%
[37]
  inhibition: Active
[38]
  IC50: 3580 nM
[39]
  Activity: 13.1%
[40]
  Activity: Active
